# Patent publication US8748632B2, “Positive allosteric modulators of group II mGluRs” (Sanford-Burnham Medical Research Institute, priority 2010, dated 2014)
# Biological target: mGluR2 (Rattus norvegicus, UniProt P31421)
# Assay: mGluR2 PAM (positive allosteric modulator) EC50
# Format: cell-based
# Settings: positive allosteric modulator activity
# Sequence of mGluR2 (P31421 19-872): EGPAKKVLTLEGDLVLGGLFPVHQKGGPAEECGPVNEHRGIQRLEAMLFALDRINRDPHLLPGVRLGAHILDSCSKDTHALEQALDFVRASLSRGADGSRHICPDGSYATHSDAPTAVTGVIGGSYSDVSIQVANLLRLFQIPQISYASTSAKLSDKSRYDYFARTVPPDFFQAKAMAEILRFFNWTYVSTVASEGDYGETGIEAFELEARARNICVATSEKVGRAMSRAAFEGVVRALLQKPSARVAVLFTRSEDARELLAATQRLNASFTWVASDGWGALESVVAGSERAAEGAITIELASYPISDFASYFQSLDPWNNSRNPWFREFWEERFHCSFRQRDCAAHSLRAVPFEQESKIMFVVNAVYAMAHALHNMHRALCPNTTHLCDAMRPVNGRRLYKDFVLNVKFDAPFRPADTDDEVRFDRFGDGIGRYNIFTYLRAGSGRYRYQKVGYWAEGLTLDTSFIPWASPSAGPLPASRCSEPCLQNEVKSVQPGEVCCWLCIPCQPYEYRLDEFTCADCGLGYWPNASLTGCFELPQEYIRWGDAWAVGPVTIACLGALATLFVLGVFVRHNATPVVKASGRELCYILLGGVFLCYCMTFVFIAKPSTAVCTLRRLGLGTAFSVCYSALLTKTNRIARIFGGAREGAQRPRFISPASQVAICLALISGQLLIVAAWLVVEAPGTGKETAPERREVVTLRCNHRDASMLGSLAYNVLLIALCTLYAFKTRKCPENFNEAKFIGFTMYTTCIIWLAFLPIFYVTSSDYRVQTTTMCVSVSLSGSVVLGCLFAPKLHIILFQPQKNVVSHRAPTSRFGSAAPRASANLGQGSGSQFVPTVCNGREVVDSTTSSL
smiles,measurement,value
"O=C(O)c1cc(-c2cccc(COc3ccc4c(=O)n(C5CCCCC5)oc4c3)c2)ccc1Cl [Example 61, 4-Chloro-3′-((2-cyclohexyl-3-oxo-2,3-dihydrobenzo[d]isoxazol-6-yloxy)methyl)biphenyl-3-carboxylic acid]",mGluR2 PAM EC50(μM),desensitizes
